Measurements reported in patent US4532122A, “Anti-trypanosomal activity of platinum co-ordination compounds” (The United States of America as represented by the …, priority 1981, dated 1985).
“Also recorded” adds a separate entry of the source.

Key:
[1] = 30-day survival of uninfected (healthy) mice treated with cisplatin, with or without hydration and disulfiram; format: in vivo
Experimental: Ten animals were used in each of three test procedures for the three regimens of drug dosing. The test procedures included: no hydration of mice; hydration of mice; and hydration plus disulfiram administration to the animals.
(§1) All groups included 10 mice except where indicated. Therapy was 3 mg/kg
indicated. Disulfiram (250 mg/kgorally) was given exactly four hours
Hydration was 3 ml of physiologic saline
given subcutaneously four times per day. Survival is given as % survival
30 days following initial therapy.
^a Average survival from four experiments with 10 mice per experiment

[2] = Histopathology of mice treated with cisplatin; format: in vivo
From the text: Thus, histopathologic studies were requisite.
Two mice from each of these groups were necropsied at various times following cisplatin treatment. […] Tissues were fixed in 10% neutral buffered formalin, imbedded in paraffin, sectioned to 6-8μ and stained with hematoxylin and eosin.

Trypanosoma rhodesiense [3] = assay: 30-day survival and cure of Trypanosoma rhodesiense-infected mice treated with cisplatin; format: in vivo; details: for cure, survival and damage on concurrent treatment: hydrated, trypanosome-infected mice, cisplatin and disulfiram or diethyl dithiocarbamate
Experimental: Laboratory animals of diverse sorts have been employed in studies with trypanosomes. […] This method has been reported in detail: L. Rane, D. S. Rane, and K. E. Kinnamon, Am. J. Trop. Med. Hyg., 25, 395-400 (1976).
(§2) Anti-trypanosomal activity reported in this invention was determined according to the procedure outlined in the article of L. Rane, et al entitled "Screening Large Numbers of Compounds in a Model Based on Mortality of Trypanosoma rhodesiense Infected Mice," The American Journal of Tropical Medicine and Hygiene, Volume 25, No. 3, pages 395-400 ([…]). To summarize, however, experiments were conducted with the Wellcome CT strain of Trypanosoma rhodesiense originally isolated in 1934. The test system is patterned after the one developed and employed in testing of compounds for activity against Plasmodium berghei malaria [see Osdene, et al, New Series of Potential Antimalarial Agents, J. Med. Chem., 10, 431-434 (1967)]. The test system is based on comparisons of responses to test compounds by ICR/HA Swiss mice infected with the strain as expressed in mean survival times compared with mean survival times of untreated controls.
Test mice (of similar age were females and 21 to 25 grams in weight) received an intraperitoneal injection of 0.5 ml of a 1:50,000 dilution of heparinized heart blood drawn from donor mice infected with Trypanosoma rhodesiense 3 days earlier.
Deaths prior to the fourth day (when untreated controls begin to die) were regarded as not related to the infection and were scored as "toxic deaths." Treated animals were kept under observation for 30 days. Parasitemias were monitored by thick blood film smears (taken from tail veins of the mice) every 2 days for the 30-day course of the experiment. Survivors at the end of 30 days were considered cured. […] In calculating mean survival times, toxic deaths and 30 day survivors were not included.
as §1
trypanosomes and subsequently given intraperitoneally for number of days
indicated in first column. Disulfiram (250 mg/kgorally) was given exactly
physiologic saline given subcutaneously four times per day. Survival is
given as % survival 30 days following initial therapy.

Trypanosoma rhodesiense [4] = assay: Parasitemia in infected mice, monitored by thick blood film smears; format: in vivo
Experimental: as §2
By using a standard inoculum of 1×10^6 trypanosomes, it was possible to produce a uniform disease fatal to 100% of untreated animals within four to six days, with a mean survival time of 4.45±0.24 days. Test mice (of similar age were females and 21 to 25 grams in weight) received an intraperitoneal injection of 0.5 ml of a 1:50,000 dilution of heparinized heart blood drawn from donor mice infected with Trypanosoma rhodesiense 3 days earlier.
Deaths prior to the fourth day (when untreated controls begin to die) were regarded as not related to the infection and were scored as "toxic deaths." Treated animals were kept under observation for 30 days. Parasitemias were monitored by thick blood film smears (taken from tail veins of the mice) every 2 days for the 30-day course of the experiment. Survivors at the end of 30 days were considered cured. An increase of 100% in mean survival time over control animals was considered as a minimum effective response. In calculating mean survival times, toxic deaths and 30 day survivors were not included.
The therapeutic regimen was that described in Examples 1 through 3.

Trypanosoma rhodesiense [5] = assay: Subinoculation of tissues (blood, heart, brain) of cured mice into healthy recipient mice; format: in vivo, Trypanosoma rhodesiense in mice; details: donors: cisplatin with hydration plus disulfiram
From the text: The considerable and complex nature of problems in various developing countries of tropical Africa have been worsened by the increasing incidents of trypanosomiasis. Drugs for the management of this highly fatal infection have been generally inadequate or/and highly toxic to the victim. The present invention relates to a novel means for alleviating the toxic effects of an agent useful in the treatment of highly fatal trypanosome infections in animals. […] However, cures have been achieved safely by concurrent hydration of the animals and oral dosing with disulfiram. This procedure was firmly established as affording parasitologic cures of the experimental animals by subinoculation of tissues (blood, brain, heart) into recipient mice from mice cured of trypanosomiasis in accordance with the method of this invention.
Some animals suffered relapses 6 to 14 days after the last doses. […] All survivors at 30 days were sacrificed, and tissues (blood; heart; brain) subinoculated into healthy mice. […] Thus, no latent trypanosomes had survived the therapy.

Trypanosoma rhodesiense [6] = details: Kinnamon et al.; peanut oil vehicle; cited from earlier work
[7] = no hydration, 3 mg/kg/day i.p., 7 days
[8] = with hydration, 3 mg/kg/day i.p., 7 days
[9] = mice treated with cisplatin alone
[10] = hydration + disulfiram, cisplatin 3 mg/kg/day, 6 days
[11] = with hydration, 3 mg/kg/day, 6 days

N.N.[Cl][Pt][Cl] [Cisplatin, cis-diamminedichloroplatinum (II)]
30-Day survival ([1]; hydration + disulfiram (250 mg/kg orally), cisplatin 3 mg/kg/day i.p., 6 days): 100% | 30-Day survival ([1]; hydration + disulfiram (250 mg/kg orally), cisplatin 3 mg/kg/day i.p., 7 days, average of four experiments): 100% | mortality from cisplatin administration ([1]; hydration with or without disulfiram): ameliorated by hydration, with or without use of disulfiram | 30-Day survival ([1]; no hydration, 3 mg/kg/day i.p., 5 days): 100% | 30-Day survival ([1]; no hydration, 3 mg/kg/day i.p., 6 days): 10% | 30-Day survival [1, 7]: 0% | 30-Day survival ([1]; with hydration, 3 mg/kg/day i.p., 6 days): 100% | 30-Day survival [1, 8]: 90% | renal cortex findings ([2]; cisplatin alone, necropsied on day 18 or later): multifocal accumulations of lymphoplasmacytic inflammatory cells with areas of tubular regeneration | early renal lesions [2, 9]: acute proximal and distal tubular necrosis | lesions other than renal [2, 9]: colonic and jejunal enteritis, and interstitial pneumonia with edema and vascular congestion | renal lesions (frequency) [2, 9]: highly common | curative effects on Trypanosoma rhodesiense infections (Trypanosoma rhodesiense [3]; 3 mg/kg/day for 7 days): does exert curative effects | cure, survival and damage on concurrent treatment (Trypanosoma rhodesiense [3]): effected cures of the infection with very good survival and little damage to test animals | 30-Day survival of trypanosome-infected mice (Trypanosoma rhodesiense [3]; hydration + disulfiram (250 mg/kg orally), cisplatin 3 mg/kg/day i.p., 6 days, average of four experiments): 62.5% | cure of Trypanosoma rhodesiense infection (Trypanosoma rhodesiense [3]; hydration plus disulfiram, cisplatin 3 mg/kg daily for seven days): effective in curing mice; also recorded: fully curative, and not merely palliative | 30-Day survival of trypanosome-infected mice (Trypanosoma rhodesiense [3]; [7]): 0% | 30-Day survival of trypanosome-infected mice (Trypanosoma rhodesiense [3]; [8]): 57% | cure of Trypanosoma rhodesiense infection (Trypanosoma rhodesiense [3]; with hydration, 7-day regimen): effective in curing mice | clearance of trypanosomes from bloodstream (Trypanosoma rhodesiense [4]; cisplatin alone, 3 mg/kg/day, 5 days): failed to clear the bloodstream of trypanosomes | clearance of trypanosomes from blood (Trypanosoma rhodesiense [4]; [10]): temporarily cleared of trypanosomes; also recorded: Blood of all mice was cleared of trypanosones | relapse of parasitemia (Trypanosoma rhodesiense [4]; [10]): relapses of parasitemia occurred; also recorded: Relapse of parasitemia | clearance of trypanosomes from blood (Trypanosoma rhodesiense [4]; no hydration, 3 mg/kg/day, 7 days): Blood of all mice was cleared of trypanosones | time of relapse after the last doses (Trypanosoma rhodesiense [4]; some animals, hydration + disulfiram, cisplatin 6 daily doses): 6 to 14 days | clearance of trypanosomes from blood (Trypanosoma rhodesiense [4]; [11]): Blood of all mice was cleared of trypanosones | relapse of parasitemia (Trypanosoma rhodesiense [4]; [11]): Relapse of parasitemia | clearance of trypanosomes from blood (Trypanosoma rhodesiense [4]; with hydration, 3 mg/kg/day, 7 days): Blood of all mice was cleared of trypanosones | trypanosome infection in recipient mice after subinoculation of tissues of survivors (Trypanosoma rhodesiense [5]): did not produce the trypanosomiasis in the recipient mice; also recorded: No recipient mice developed trypanosome infection | anti-trypanosomal effects in prior work (Trypanosoma rhodesiense [6]): anti-trypanosomal effects at dose levels which were unsuitably toxic to the test animals

CCN(CC)C(=S)S [diethyl dithiocarbamate]
cure, survival and damage on concurrent treatment (Trypanosoma rhodesiense [3]): effected cures of the infection with very good survival and little damage to test animals

CCN(CC)C(=S)SSC(=S)N(CC)CC [Disulfiram, bis-(diethylthiocarbamoyl) disulfide]
protection from toxic effects of cisplatin ([2]; oral disulfiram given with cisplatin): protected the kidneys and gastrointestinal tracts from the toxic effects | anti-trypanosomal activity of disulfiram alone (Trypanosoma rhodesiense [3]; disulfiram alone, model test system): lack anti-trypanosomal activity | cure, survival and damage on concurrent treatment (Trypanosoma rhodesiense [3]): effected cures of the infection with very good survival and little damage to test animals
